# In publication PMC5643385, “Probing ligand recognition of the opioid pan antagonist AT-076 at nociceptin, kappa, mu, and delta opioid receptors through structure-activity relationships” (Scientific Reports, 2017):
# Read-outs that look alike come from different tables or passages of the source.
# Legend:
# [1] = target: T1, human MOP receptor (Homo sapiens, UniProt P35372); assay: Radioligand competition binding, [3H]DAMGO, membranes of transfected CHO cells
# [2] = target: T2, human KOP receptor (Homo sapiens, UniProt P41145); assay: Radioligand competition binding, [3H]U69,593, membranes of transfected CHO cells (Kappa-CN)
# [3] = target: T2, human KOP receptor; assay: biochemical
# [4] = target: T3, human DOP receptor (Homo sapiens, UniProt P41143); assay: Radioligand competition binding, [3H]DPDPE, membranes of transfected CHO cells
# [5] = target: T1, human MOP receptor; conditions: read-out: MOP Ki; Figure 1; cited from earlier work
# [6] = target: T3, human DOP receptor; conditions: read-out: DOP Ki; Figure 1; cited from earlier work
# [7] = target: T3, human DOP receptor; assay: [35S]GTPγS functional assay (intrinsic activity; Schild analysis vs DPDPE); type: biochemical; conditions: inhibition of agonist-induced [35S]GTPγS binding, read-out: Antagonist Potency (pA2 ± SEM) DOP (converted)
# [8] = target: T1, human MOP receptor; assay: biochemical
# [9] = target: T2, human KOP receptor; design: method as in PMID 25635572; conditions: Figure 1; cited from earlier work
# [10] = target: T4, human NOP receptor (Homo sapiens, UniProt P41146); assay: Radioligand competition binding, [3H]N/OFQ, membranes of transfected CHO cells
# [11] = target: T4, human NOP receptor; assay: [35S]GTPγS functional assay (intrinsic activity; Schild analysis vs N/OFQ); type: biochemical
# [12] = test system: NOP; design: method as in PMID 16451050; conditions: Figure 1; cited from earlier work
# [13] = target: T4, human NOP receptor; design: method as in PMID 25635572; conditions: Figure 1; cited from earlier work
# [14] = read-out: Receptor Binding, Ki MOP
# [15] = read-out: Receptor Binding, Ki KOP
# [16] = read-out: Receptor Binding, Ki DOP
# [17] = [3H]N/OFQ displacement, Cheng-Prusoff, mean ± SEM, at least three experiments in triplicate, read-out: Receptor Binding, Ki NOP
# [18] = [3H]DAMGO displacement, Cheng-Prusoff, mean ± SEM, at least three experiments in triplicate, read-out: Receptor Binding, Ki MOP
# [19] = [3H]U69,593 displacement, Cheng-Prusoff, mean ± SEM, at least three experiments in triplicate, read-out: Receptor Binding, Ki KOP
compound,measurement,setting,value
"CC(C)[C@@H](CN1CCC(c2cccc(O)c2)CC1)NC(=O)[C@H]1Cc2ccc(O)cc2CN1 [1 (AT-076), (R)-7-hydroxy-N-((S)-1-(4-(3-hydroxyphenyl)piperidin-1-yl)-3-methylbutan-2-yl)-1,2,3,4-tetrahydroisoquinoline-3-carboxamide]",Ki,[1]; [14],1.67 ± 0.6 nM
same,Ki,[2]; [15],1.14 ± 0.63 nM
same,Antagonist Potency (pA2 ± SEM) KOP,[3]; cho cell membranes,8.366
same,Ki,[4]; [16],19.6 ± 1.3 nM
same,Ki,[5],1.67 ± 0.6 nM
same,Ki,[6],19.6 ± 1.3 nM
same,Kb,[7],26.9 nM
same,Antagonist Potency (pA2 ± SEM) MOP,[8]; cho cell membranes,9.24
same,Ki,[9],1.14 ± 0.63 nM
"CC(C)[C@@H](CN1CCC(c2cccc(O)c2)CC1)NC(=O)[C@H]1Cc2ccc(C#N)cc2CN1 [Compound 2, (R)-7-cyano-N-((S)-1-(4-(3-hydroxyphenyl)piperidin-1-yl)-3-methylbutan-2-yl)-1,2,3,4-tetrahydroisoquinoline-3-carboxamide]",Ki,[1],81.7 ± 12.4 nM
same,Decrease in KOP binding affinity compared to AT-076,[2],6 fold
same,Ki,[2],6.73 ± 1.42 nM
same,Profile in Schild analysis KOP,[3],N/C^#
same,Ki,[10]; [17],1890 ± 270 nM
same,Ki,[4],73.7 ± 57.9 nM
"CC(C)[C@@H](CN1CCC(c2cccc(O)c2)CC1)NC(=O)[C@H]1Cc2ccc(CN)cc2CN1 [Compound 3, (R)-7-(aminomethyl)-N-((S)-1-(4-(3-hydroxyphenyl)piperidin-1-yl)-3-methylbutan-2-yl)-1,2,3,4-tetrahydroisoquinoline-3-carboxamide]",Decrease in MOP binding affinity compared to AT-076,[1],> 100 fold
same,Ki,[1]; [18],1490 ± 220 nM
same,Decrease in KOP binding affinity compared to AT-076,[2],> 100 fold
same,Ki,[2]; [19],118 ± 29 nM
same,Ki,[10]; [17],5540 ± 1150 nM
same,Decrease in DOP binding affinity compared to AT-076,[4],> 100 fold
same,Ki,[4]; [16],1570 ± 1130 nM
"CC(C)[C@@H](CN1CCC(c2cccc(O)c2)CC1)NC(=O)[C@H]1Cc2ccc(CNC(=N)N)cc2CN1 [Compound 4, (R)-7-(guanidinomethyl)-N-((S)-1-(4-(3-hydroxyphenyl)piperidin-1-yl)-3-methylbutan-2-yl)-1,2,3,4-tetrahydroisoquinoline-3-carboxamide]",Ki,[1]; [18],180 ± 70 nM
same,Decrease in MOP binding affinity compared to AT-076,[1]; vs lead AT-076 (1),> 100 fold
same,Ki,[2]; [19],129 ± 60 nM
same,Decrease in KOP binding affinity compared to AT-076,[2]; vs lead AT-076 (1),> 100 fold
same,Ki,[10]; [17],3260 ± 780 nM
same,Ki,[4]; [16],> 10000 nM
same,Decrease in DOP binding affinity compared to AT-076,[4]; vs lead AT-076 (1),> 100 fold
"CC(C)[C@@H](CN1CCC(c2cccc(O)c2)CC1)NC(=O)[C@H]1Cc2ccc(CNS(C)(=O)=O)cc2CN1 [Compound 5, (R)-N-((S)-1-(4-(3-hydroxyphenyl)piperidin-1-yl)-3-methylbutan-2-yl)-7-(methylsulfonamidomethyl)-1,2,3,4-tetrahydroisoquinoline-3-carboxamide]",Ki,[1]; [18],4400 ± 2350 nM
same,Ki,[2]; [19],295 ± 65 nM
same,Ki,[10]; [17],7910 ± 1470 nM
same,Ki,[4]; [16],> 10000 nM
"CC(C)[C@@H](CN1CCC(c2cccc(O)c2)CC1)NC(=O)[C@@H](N)CCCCN [Compound 6, (S)-2,6-diamino-N-((S)-1-(4-(3-hydroxyphenyl)piperidin-1-yl)-3-methylbutan-2-yl)hexanamide]",Ki,[1]; [18],> 10000 nM
same,Ki,[2]; [19],1520 ± 419 nM
same,Ki,[10]; [17],> 10000 nM
same,Ki,[4]; [16],> 10000 nM
"CC(C)[C@@H](CN1CCC(c2cccc(O)c2)CC1)NC(=O)[C@@H](N)CCCNC(=N)N [Compound 7, (S)-2-amino-5-guanidino-N-((S)-1-(4-(3-hydroxyphenyl)piperidin-1-yl)-3-methylbutan-2-yl)pentanamide]",Ki,[1]; [18],1440 ± 57.6 nM
same,Ki,[2]; [19],125 ± 2.4 nM
same,Ki,[10]; [17],> 10000 nM
same,Ki,[4]; [16],> 10000 nM
"CC(C)[C@@H](CN1CCC(c2cccc(C#N)c2)CC1)NC(=O)[C@H]1Cc2ccc(O)cc2CN1 [Compound 8, (R)-N-((S)-1-(4-(3-cyanophenyl)piperidin-1-yl)-3-methylbutan-2-yl)-7-hydroxy-1,2,3,4-tetrahydroisoquinoline-3-carboxamide]",Ki,[1],2.93 ± 0.67 nM
same,Ki,[2],3.86 ± 0.09 nM
same,Kb,[3],0.269 nM
same,Ki,[10],61.3 ± 14.6 nM
same,Ki,[4]; [16],136 ± 59.7 nM
same,Kb,[8],8.13 nM
"CC(C)[C@@H](CN1CCC(c2cccc(C#N)c2)CC1)NC(=O)[C@H]1Cc2ccccc2CN1 [Compound 9, (R)-N-((S)-1-(4-(3-cyanophenyl)piperidin-1-yl)-3-methylbutan-2-yl)-1,2,3,4-tetrahydroisoquinoline-3-carboxamide]",Ki,[1]; [18],973 ± 21 nM
same,Ki,[2]; [19],543 ± 62.2 nM
same,Ki,[10]; [17],> 10000 nM
same,Ki,[4]; [16],> 10000 nM
"CC(C)[C@@H](CN1CCC(c2cccc(CN)c2)CC1)NC(=O)[C@H]1Cc2ccc(O)cc2CN1 [Compound 10, (R)-N-((S)-1-(4-(3-(aminomethyl)phenyl)piperidin-1-yl)-3-methylbutan-2-yl)-7-hydroxy-1,2,3,4-tetrahydroisoquinoline-3-carboxamide]",Ki,[1],0.68 ± 0.28 nM
same,Ki,[2],1.08 ± 0.01 nM
same,Kb,[3],0.38 nM
same,Increase in NOP binding affinity compared to cyano precursor 8,[10],2 fold
same,Ki,[10],30.7 ± 14.5 nM
same,Ki,[4]; [16],133 ± 24.9 nM
same,Kb,[11],132 nM
same,Kb,[8],15.5 nM
"CC(C)[C@@H](CN1CCC(c2cccc(CN)c2)CC1)NC(=O)[C@H]1Cc2ccccc2CN1 [Compound 11, (R)-N-((S)-1-(4-(3-(aminomethyl)phenyl)piperidin-1-yl)-3-methylbutan-2-yl)-1,2,3,4-tetrahydroisoquinoline-3-carboxamide]",Ki,[1]; [18],284 ± 75.3 nM
same,Ki,[2]; [19],408 ± 30.8 nM
same,Ki,[10]; [17],202 ± 55.6 nM
same,Ki,[4]; [16],> 10000 nM
"CC(C)[C@@H](CN1CCC(c2cccc(CNC(=O)[C@@H](N)CCCNC(=N)N)c2)CC1)NC(=O)[C@H]1Cc2ccc(O)cc2CN1 [Compound 12, (R)-N-((S)-1-(4-(3-(((S)-2-amino-5-guanidinopentanamido)methyl)phenyl)piperidin-1-yl)-3-methylbutan-2-yl)-7-hydroxy-1,2,3,4-tetrahydroisoquinoline-3-carboxamide]",Ki,[1],5.67 ± 2.38 nM
same,Ki,[2],2.11 ± 0.52 nM
same,Kb,[3],0.158 nM
same,Ki,[10],6.04 ± 1.32 nM
same,Ki,[4],53.6 ± 7.12 nM
same,Kb,[11],5.01 nM
same,Kb,[8],0.692 nM
"CC(C)[C@@H](CN1CCC(c2cccc(CNC(=O)[C@@H](N)CCCNC(=N)N)c2)CC1)NC(=O)[C@H]1Cc2ccccc2CN1 [Compound 13, (R)-N-((S)-1-(4-(3-(((S)-2-amino-5-guanidinopentanamido)methyl)phenyl)piperidin-1-yl)-3-methylbutan-2-yl)-1,2,3,4-tetrahydroisoquinoline-3-carboxamide]",Ki,[1]; [18],408 ± 37.3 nM
same,Ki,[2],56.1 ± 5.38 nM
same,Ki,[10],43.3 ± 19.1 nM
same,Ki,[4]; [16],> 10000 nM
"CC(C)[C@@H](CN1CCC(C2CCCCC2)CC1)NC(=O)[C@H]1Cc2ccc(O)cc2CN1 [Compound 14, (R)-N-((S)-1-(4-cyclohexylpiperidin-1-yl)-3-methylbutan-2-yl)-7-hydroxy-1,2,3,4-tetrahydroisoquinoline-3-carboxamide]",Ki,[1],2.79 ± 0.28 nM
same,Binding selectivity for KOP over DOP,[2],49 fold
same,Binding selectivity for KOP over MOP,[2],11 fold
same,Binding selectivity for KOP over NOP,[2],333 fold
same,Higher KOP affinity than AT-076,[2],2–4 fold
same,Ki,[2],0.253 ± 0.015 nM
same,Kb,[3],0.0347 nM
same,Ki,[10],84.4 ± 13.6 nM
same,Ki,[4],12.4 ± 8 nM
same,Kb,[7],42.3 nM
same,Kb,[8],0.692 nM
"CC(C)[C@@H](CN1CCC(N2CCc3ccccc32)CC1)NC(=O)[C@H]1Cc2ccc(O)cc2CN1 [Compound 16, (R)-7-hydroxy-N-((S)-1-(4-(indolin-1-yl)piperidin-1-yl)-3-methylbutan-2-yl)-1,2,3,4-tetrahydroisoquinoline-3-carboxamide]",Ki,[10]; [17],566 ± 129 nM
same,Ki,[4]; [16],138 ± 45 nM
O=C(NCCCN1CCC2(CC1)OCc1ccccc12)C1CCCN1Cc1ccccc1 (stereo not drawn) [Compound C-24],IC50,[12],0.27 ± 0.038 nM
"CC(C)[C@@H](CN1CC[C@@](C)(c2cccc(O)c2)[C@@H](C)C1)NC(=O)[C@H]1Cc2ccc(O)cc2CN1 [JDTic, reference compound]",Ki,[13],16.7 ± 0.76 nM
same,Ki,"[10]; read-out: Receptor Binding, Ki NOP",16.7 ± 0.76 nM
"Cc1cccc2c1CC[C@H](CN1CCC(c3c(Cl)cccc3Cl)CC1)C[C@@H]2O [SB-612111, reference compound]",Ki,[1]; [14],623 ± 156 nM
same,Ki,[2]; [15],541 ± 36.3 nM
same,Ki,[4]; [16],2890 ± 532 nM
